US9926292B2, “Pyridinyl derivatives, pharmaceutical compositions and uses thereof” (Boehringer Ingelheim International GmbH, priority 2016, dated 2018)

Assays:
pigs = conditions: aminoguanidine 100 mg/kg and gavage of histamine 2 mg/kg; cited from earlier work
AOC3 = target: T1, AOC3 (Homo sapiens, UniProt Q16853); experiment: AOC3 biochemical assay (MAO-Glo); conditions: Table 1; read-out: AOC3 IC50
T1 construct: expressed in transfected cells; host or cells: CHO cells
T1 sequence (Q16853 1-763): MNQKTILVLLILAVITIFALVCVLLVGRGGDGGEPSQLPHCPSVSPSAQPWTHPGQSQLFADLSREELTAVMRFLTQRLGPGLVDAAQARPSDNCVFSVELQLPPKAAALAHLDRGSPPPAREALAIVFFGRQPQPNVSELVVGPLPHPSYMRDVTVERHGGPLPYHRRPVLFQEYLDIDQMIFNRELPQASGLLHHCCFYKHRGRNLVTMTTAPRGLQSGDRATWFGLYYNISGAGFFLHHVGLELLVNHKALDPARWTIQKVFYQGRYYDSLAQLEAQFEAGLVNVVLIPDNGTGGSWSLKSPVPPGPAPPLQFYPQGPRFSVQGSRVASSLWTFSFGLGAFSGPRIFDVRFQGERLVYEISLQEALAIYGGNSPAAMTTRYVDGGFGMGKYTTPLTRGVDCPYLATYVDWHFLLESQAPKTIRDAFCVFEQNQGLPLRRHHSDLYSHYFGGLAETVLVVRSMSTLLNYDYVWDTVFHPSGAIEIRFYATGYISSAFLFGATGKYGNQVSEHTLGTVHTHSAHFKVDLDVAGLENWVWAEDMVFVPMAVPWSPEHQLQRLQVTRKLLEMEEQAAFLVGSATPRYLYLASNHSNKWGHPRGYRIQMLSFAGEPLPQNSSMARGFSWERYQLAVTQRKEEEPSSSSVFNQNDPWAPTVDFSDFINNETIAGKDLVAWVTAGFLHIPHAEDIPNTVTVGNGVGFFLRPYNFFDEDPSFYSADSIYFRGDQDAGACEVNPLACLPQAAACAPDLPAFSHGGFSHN
Experimental: As substrate a derivate of the beetle luciferin ((4S)-4,5-dihydro-2-(6-hydroxybenzothiazolyl)-4-thiazole-carboxylic acid) is used, which is oxidized at a primary amine moiety. After a spontaneous elimination and a catalyzed esterase reaction, the turnover of the luciferine by the luciferase is recorded as a signal of AOC3 activity.
Recombinant CHO cells, overexpressing the human (1500 cells/well), mouse (1000 cells/well) or rat (500 cells/well) AOC3 enzyme are diluted in reaction buffer and added in a volume of 15 μL to the wells. After incubation for 20 minutes at 37° C., 2 μL of MAO substrate (dissolved in DMSO at 16 mM, adjusted to assay concentration in reaction buffer to a final assay concentration of 20 μM) is added and further incubated for 60 minutes at 37° C. The turnover of the substrate is determined by the addition of 20 μL of the detection-mix which was generated by the addition of reconstitution buffer with esterase (PROMEGA, #V1402) to the luciferine detection reagent (PROMEGA, #V1402).

AOC1 = target: T2, AOC1 (Homo sapiens, UniProt P19801); experiment: AOC1 biochemical assay (Amplex Red); conditions: Table 1; read-out: AOC1 IC50
T2 construct: purchased R&D Systems 8297-AO-010
T2 sequence (P19801 20-751): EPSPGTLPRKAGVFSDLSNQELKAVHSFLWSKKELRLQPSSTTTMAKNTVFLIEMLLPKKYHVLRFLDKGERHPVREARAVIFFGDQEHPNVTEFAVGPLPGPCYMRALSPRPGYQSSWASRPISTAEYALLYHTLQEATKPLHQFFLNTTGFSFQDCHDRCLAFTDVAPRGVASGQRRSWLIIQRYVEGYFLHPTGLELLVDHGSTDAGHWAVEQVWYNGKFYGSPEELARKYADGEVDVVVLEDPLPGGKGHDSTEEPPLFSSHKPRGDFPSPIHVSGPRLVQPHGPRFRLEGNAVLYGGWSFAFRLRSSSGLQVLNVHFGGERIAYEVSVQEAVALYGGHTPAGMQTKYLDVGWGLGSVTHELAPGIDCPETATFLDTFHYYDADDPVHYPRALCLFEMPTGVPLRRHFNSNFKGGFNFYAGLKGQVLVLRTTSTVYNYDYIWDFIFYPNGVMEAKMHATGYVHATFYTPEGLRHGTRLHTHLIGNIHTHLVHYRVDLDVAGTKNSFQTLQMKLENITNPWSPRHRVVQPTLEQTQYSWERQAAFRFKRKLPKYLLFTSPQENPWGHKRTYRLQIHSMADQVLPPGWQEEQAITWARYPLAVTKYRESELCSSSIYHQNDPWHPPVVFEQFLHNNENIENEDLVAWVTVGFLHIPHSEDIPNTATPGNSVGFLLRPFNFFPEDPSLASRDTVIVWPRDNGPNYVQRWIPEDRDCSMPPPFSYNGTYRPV
Text: The Amplex® Red Assay (available from Thermo Fisher Scientific) provides a sensitive method for the detection of H2O2 generated during enzymatic reactions like the amine oxidation catalyzed by AOC1.

IC50 (AOC3) | IC50 (AOC1) | melting point | Compound | death (pigs)
– | – | – | N=C(N)NN [aminoguanidine] | 3 out of 15
3 nM | 2520 nM | 193 to 196 °C | N=C(N)NC(=O)OCc1cccc(-c2cnc(OC[C@H]3CC3(F)F)nc2)n1 [Example 26, [6-[2-[[(1R)-2,2-difluorocyclopropyl]methoxy]pyrimidin-5-yl]-2-pyridyl]methyl N-carbamimidoylcarbamate] | –
5 nM | 7210 nM | 195 °C | CC(F)(F)COc1ncc(-c2cccc(COC(=O)NC(=N)N)n2)cn1 [Example 20, [6-[2-(2,2-difluoropropoxy)pyrimidin-5-yl]-2-pyridyl]methyl N-carbamimidoylcarbamate] | –
